Assay results taken from ChEMBL document CHEMBL1152039, “PIPERIDINE CARBOXYLIC ACID DERIVATIVES AS SIALYL LEWIS X MIMETICS” (Bioorg Med Chem Lett, 1997).

Columns and labels:
HL-60 [1] = test: Tested for the inhibition of HL60 cell adhesion to recombinant E-selectin-IgG fusion protein measured by cell culture assay.; type: functional, cell-based; conditions: Homo sapiens
HL-60 [2] = test: Tested for the inhibition of HL60 cell adhesion to recombinant P-selectin-IgG fusion protein measured by cell culture assay.; type: functional, cell-based; conditions: Homo sapiens
Rattus norvegicus [3] = test: Tested for the inhibition of leukocyte adhesion in rat mesenteric venules in vivo at a dose of 3 mg/kg measured by intravital microscopy.; type: functional
Rattus norvegicus [4] = test: Tested for the inhibition of leukocyte adhesion in rat mesenteric venules in vivo at a dose of 1 mg/kg measured by intravital microscopy.; type: functional
Oryctolagus cuniculus [5] = species: Oryctolagus cuniculus; test: Percent incidence of heart arrhythmia and Ventricular fibrillation in isolated rabbit hearts at a concentration of 3 uM.; type: functional
Rattus norvegicus [6] = test: Tested for the inhibition of leukocyte adhesion in rat mesenteric venules in vivo at a dose of 10 mg/kg measured by intravital microscopy.; type: functional
Oryctolagus cuniculus [7] = species: Oryctolagus cuniculus; test: Percent incidence of heart arrhythmia and Ventricular fibrillation in isolated rabbit hearts at a concentration of 1 uM.; type: functional

IC50 (HL-60 [1]) [mM] | IC50 (HL-60 [2]) [mM] | Structure (SMILES) | inhibition in vivo at 3 mg/kg (Rattus norvegicus [3]) [%] | inhibition in vivo at 1 mg/kg (Rattus norvegicus [4]) [%] | Incidence (Oryctolagus cuniculus [5]) [%] | inhibition in vivo at 10 mg/kg (Rattus norvegicus [6]) [%] | Incidence (Oryctolagus cuniculus [7]) [%]
5 | > 10 | O=C(O)C1CCN(C(=O)O[C@@H]2CCCC[C@H]2O[C@@H]2O[C@@H](CO)[C@H](O)[C@H](O)[C@H]2O)CC1 | 38 |  |  |  | 
> 10 | > 10 | O=C(O)C1CCN(C(=O)O[C@@H]2CCCC[C@H]2O[C@H]2O[C@@H](CO)[C@@H](O)[C@H](O)[C@H]2O)CC1 | 56 |  |  |  | 

Second part, the compound before the results:

Structure (SMILES) | IC50 (HL-60 [1]) [mM] | IC50 (HL-60 [2]) [mM] | inhibition in vivo at 3 mg/kg (Rattus norvegicus [3]) [%] | inhibition in vivo at 1 mg/kg (Rattus norvegicus [4]) [%] | Incidence (Oryctolagus cuniculus [5]) [%] | inhibition in vivo at 10 mg/kg (Rattus norvegicus [6]) [%] | Incidence (Oryctolagus cuniculus [7]) [%]
CC(=O)N[C@H]1[C@H]([C@@H](O)[C@@H](O)CO)O[C@@](O[C@@H]2[C@H](O)[C@H](O[C@H]3[C@H](O[C@@H]4O[C@@H](C)[C@@H](O)[C@H](O)[C@@H]4O)[C@H](NC(C)=O)C(O)O[C@H]3CO)O[C@@H](CO)[C@@H]2O)(C(=O)O)C[C@H]1O (some centres undefined) |  |  |  | 57 | 50 | 63 | 
CC1OC(OC2CCCCC2OC(=O)N2CCC(C(=O)O)CC2)C(O)C(O)C1O (centres undefined) | > 5 | > 5 | 69 | 64 |  | 81 | 50
CC1OC(OC2CCCCC2OC(=O)N2CCC(C(=O)O)(C(=O)O)CC2)C(O)C(O)C1O (centres undefined) | 1.6 | 7.5 | 49 |  |  |  | 50
